Results taken from patent US6521267B1, “Tyrosinase inhibitors from plants” (Fytokem Prtoducts, Inc., priority 1998, dated 2003).

Tested on: tyrosinase (Sigma T-7755)
Experiment: tyrosinase assay: conversion of L-DOPA to DOPAquinone, monitored at 475 nm
Assay type: biochemical
Details: for INHIBITION OF ENZYME: comparison standard, 1% solution (solids present 1.0); for Inhibition of tyrosinase enzyme step 2, 0.001% conc: ingredient at 0.001% conc; for Inhibition of tyrosinase enzyme step 2, 0.01% conc: ingredient at 0.01% conc; for Inhibition of tyrosinase enzyme step 2, 0.1% conc: ingredient at 0.1% conc; for Inhibition of tyrosinase enzyme step 2, 1% conc: ingredient at 1% conc
Procedure: The tyrosinase assay was based on methods previously published (Mason, H. S., (1948) J. Biol. Chem. 172, 83-86; Dawson, C. R. and Magee, R. J. (1955) Methods in Enzymology II 817-827 (Editors-in-chief S. P. Colowick and N. O. Caplan); Lerner, A. B. (1955) ibid 827-831; Bergmeyer, U. H. (1983) Methods of Enzymatic Analysis (Published by Verlag Chemie, Weinheim)). The protocol was as follows, scaled for the approximately twenty sample determinations:
(a) A buffer solution of pH 6.5 was prepared by dissolving 1.4 9 disodium monohydrogen phosphate (Na2HPO4) and 1.4 g monopotassium dihydrogen phosphate (KH2PO4) in pure water to make 200 mL.
(b) An enzyme solution of either 1.0 mg or 3.0 mg tyrosinase (Sigma T-7755) was prepared in 30 mL buffer and stored at 2° C. until use.
(c) A substrate solution was prepared by dissolving 0.10 g L-DOPA (L-3,4-dihydroxyphenyl-alanine, Sigma D-9661) in 100 ML buffer.
(d) The unfettered enzyme reaction rate was measured by mixing together 0.5 mL buffer solution and 0.5 mL substrate solution in twin acrylate mini-cuvettes (path 2.0 mm), and after observing the stability of the mixture, mixing in 0.25 mL enzyme solution to one cuvette. The formation of red DOPAquinone was monitored spectrophotometrically at 475 nm, at times 0, 1, 2 and 3 minutes.
(e) The effect of added substances on the enzyme reaction rate was measured by mixing together 0.5 mL buffer solution, 0.5 mL substrate solution and 0.25 mL test substance (at 1% strength in 50:50 butyleneglycol:water) in twin acrylate mini-cuvette. The reaction was tracked spectrophotometrically at 475 nm, reading at 0, 1, 2 and 3 minutes.
(f) The effect of test substances on reaction rate was expressed as inhibition (I) where I=100−[100 (trt absorbance change, 3 min)/100(control absorbance change, 3 min)].
Concentrations of substrate, enzyme or test substance can be varied as appropriate.
(§1) This assay duplicates rate-controlling steps in the human metabolic pathway to skin pigmentation. Pure hydroquinone in 1% solution was employed as a comparison standard.
as §1

Compound | Enzymes reaction rate reduction @ 5 μg enzyme (5 μg enzyme, test substance at 1% strength) [%] | Enzymes reaction rate reduction @ 15 μg enzyme (15 μg enzyme, test substance at 1% strength) [%] | INHIBITION OF ENZYME (Table 3) | Inhibition of tyrosinase enzyme step 2, 0.001% conc (Table 4) [%] | Inhibition of tyrosinase enzyme step 2, 0.01% conc (Table 4) [%] | Inhibition of tyrosinase enzyme step 2, 0.1% conc (Table 4) [%] | Inhibition of tyrosinase enzyme step 2, 1% conc (Table 4) [%] | INHIBITION OF ENZYME (Table 5) | Inhibition of tyrosinase enzyme step 2, 0.001% conc (Table 6) [%] | Inhibition of tyrosinase enzyme step 2, 0.01% conc (Table 6) [%] | Inhibition of tyrosinase enzyme step 2, 0.1% conc (Table 6) [%] | Inhibition of tyrosinase enzyme step 2, 1% conc (Table 6) [%] | effect on tyrosinase in standard assays (in words) (constituents of TYROSTAT compositions)
Oc1ccc(O)cc1 [Hydroquinone, 1,4-dihydroxybenzene] | 65 | 55 | 58-62% | <10 | <10 | 31 | 60 | 38-62% | <10 | <10 | 31 | 60 | 
CC(O)CCO (stereo not drawn) [butanediol, 1,3-butanediol] |  |  |  |  |  |  |  |  |  |  |  |  | slightly inhibitory
O=C1O[C@H]([C@@H](O)CO)C(O)=C1O [Ascorbic acid, L-ascorbic acid] |  |  |  | 23 | 82 | 100 | 100 |  | 23 | 82 | 100 | 100 | 
